Reference: US11332459B2 (TEIJIN PHARMA LIMITED, priority 2017, dated 2022)

Target: T1, human TRPC6 (Homo sapiens, UniProt Q9Y210)
T1 construct: expressed in transfected cells
T1 sequence (Q9Y210 1-931): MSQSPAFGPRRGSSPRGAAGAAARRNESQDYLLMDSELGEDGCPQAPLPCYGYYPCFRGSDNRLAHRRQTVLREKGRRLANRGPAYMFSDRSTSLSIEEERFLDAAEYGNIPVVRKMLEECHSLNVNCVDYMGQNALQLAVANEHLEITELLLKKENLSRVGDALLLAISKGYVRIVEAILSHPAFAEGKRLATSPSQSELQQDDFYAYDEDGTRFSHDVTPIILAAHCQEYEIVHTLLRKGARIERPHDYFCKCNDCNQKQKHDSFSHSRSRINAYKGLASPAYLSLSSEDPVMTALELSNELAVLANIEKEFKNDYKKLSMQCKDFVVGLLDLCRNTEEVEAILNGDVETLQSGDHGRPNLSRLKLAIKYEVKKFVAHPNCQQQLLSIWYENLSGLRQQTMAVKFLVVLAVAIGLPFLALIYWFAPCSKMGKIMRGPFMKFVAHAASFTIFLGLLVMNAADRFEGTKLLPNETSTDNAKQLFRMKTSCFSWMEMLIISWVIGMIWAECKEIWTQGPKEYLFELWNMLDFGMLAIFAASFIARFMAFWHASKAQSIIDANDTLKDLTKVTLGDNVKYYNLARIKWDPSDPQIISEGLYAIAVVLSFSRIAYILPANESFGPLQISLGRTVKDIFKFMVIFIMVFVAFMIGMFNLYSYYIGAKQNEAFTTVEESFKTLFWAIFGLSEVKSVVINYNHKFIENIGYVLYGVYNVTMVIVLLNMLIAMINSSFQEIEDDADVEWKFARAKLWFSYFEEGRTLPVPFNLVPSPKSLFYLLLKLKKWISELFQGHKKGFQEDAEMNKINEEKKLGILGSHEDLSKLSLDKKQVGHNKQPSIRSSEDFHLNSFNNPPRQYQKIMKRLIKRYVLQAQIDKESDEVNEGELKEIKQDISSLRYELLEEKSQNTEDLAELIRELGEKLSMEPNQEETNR
Assay: TRPC6 calcium flux assay (FLIPR, OAG-stimulated calcium influx)
Assay type: cell-based
Details: HEK293 cells stably transfected with human TRPC6, read-out: hTRPC6 Potency
Outline: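 HEK293 cells stably expressing human TRPC6, loaded with calcium dye 90–120 min at RT, then given compound for 25 min before OAG (50 uM final, 0.5% DMSO) in HEPES buffer pH 7.2 with 2 mM CaCl2. Background-subtracted FLIPR peak over 180 s normalized to OAG vs buffer; IC50 from dose plot.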

Row | IC50 [nM] | SMILES
1 | 880 | N[C@@H]1CN(c2nc3cc(F)c(F)cc3n2CC(=O)N2CC3(C2)CC(F)(F)C3)CC[C@H]1F [Example 430, 2-(2-((3R,4R)-3-amino-4-fluoropiperidin-1-yl)-5,6-difluoro-1H-benzo[d]imidazol-1-yl)-1-(6,6-difluoro-2-azaspiro[3.3]heptan-2-yl)ethanone]
2 | > 3750 | N[C@@H]1CN(c2nc3cc(F)c(F)cc3n2CC(=O)N2CC3(CCOCC3)C2)CC[C@H]1F [Example 431, 2-(2-((3R,4R)-3-amino-4-fluoropiperidin-1-yl)-5,6-difluoro-1H-benzo[d]imidazol-1-yl)-1-(7-oxa-2-azaspiro[3.5]nonan-2-yl)ethanone]
3 | 7.77 | CN[C@@H]1CN(c2nc3ccc(F)cc3n2Cc2ccc(C#N)cn2)CCC1(F)F [Example 432, (R)-6-((2-(4,4-difluoro-3-(methylamino)piperidin-1-yl)-6-fluoro-1H-benzo[d]imidazol-1-yl)methyl)nicotinonitrile]
4 | > 3750 | N#Cc1ccc(Cn2c(N3CCC(F)(F)[C@H](NCCO)C3)nc3ccc(F)cc32)nc1 [Example 433, (R)-6-((2-(4,4-difluoro-3-((2-hydroxyethyl)amino)piperidin-1-yl)-6-fluoro-1H-benzo[d]imidazol-1-yl)methyl)nicotinonitrile]
5 | > 3750 | N[C@H]1CCCN(c2nc3ccccc3n2Cc2ccc(C(=O)O)cn2)C1 [Example 434, (S)-6-((2-(3-aminopiperidin-1-yl)-1H-benzo[d]imidazol-1-yl)methyl)nicotinic acid]
6 | 52.4 | NC(=O)c1ccc(Cn2c(N3CC[C@@H](F)[C@H](N)C3)nc3ccccc32)nc1 [Example 436, 6-((2-((3R,4R)-3-amino-4-fluoropiperidin-1-yl)-1H-benzo[d]imidazol-1-yl)methyl)nicotinamide]
7 | > 3750 | N[C@@H]1CN(c2nc3cc(F)c(F)cc3n2CC(=O)O)CC[C@H]1F [Example 437, 2-(2-((3R,4R)-3-amino-4-fluoropiperidin-1-yl)-5,6-difluoro-1H-benzo[d]imidazol-1-yl)acetic acid]
8 | 0.319 | N#Cc1cnc(Cn2c(N3CC[C@@H](F)[C@H](N)C3)nc3ccc(F)cc32)nc1 [Example 442, 2-((2-((3R,4R)-3-amino-4-fluoropiperidin-1-yl)-6-fluoro-1H-benzo[d]imidazol-1-yl)methyl)pyrimidine-5-carbonitrile]
9 | 0.471 | N#Cc1cnc(Cn2c(N3CC[C@@H](F)[C@H](N)C3)nc3cc(F)ccc32)nc1 [Example 443, 2-((2-((3R,4R)-3-amino-4-fluoropiperidin-1-yl)-5-fluoro-1H-benzo[d]imidazol-1-yl)methyl)pyrimidine-5-carbonitrile]
10 | 4.42 | COc1cnc(Cn2c(N3CC[C@@H](F)[C@H](N)C3)nc3ccc(F)cc32)nc1 [Example 444, (3R,4R)-4-fluoro-1-(6-fluoro-1-((5-methoxypyrimidin-2-yl)methyl)-1H-benzo[d]imidazol-2-yl)piperidin-3-amine]
11 | 20.8 | CN(CC(F)(F)F)C(=O)Cn1c(N2CC[C@@H](F)[C@H](N)C2)nc2ccc(F)cc21 [Example 445, 2-(2-((3R,4R)-3-amino-4-fluoropiperidin-1-yl)-6-fluoro-1H-benzo[d]imidazol-1-yl)-N-methyl-N-(2,2,2-trifluoroethyl)acetamide]
12 | 34 | COc1cnc(Cn2c(N3CC[C@@H](F)[C@H](N)C3)nc3cc(F)ccc32)nc1 [Example 446, (3R,4R)-4-fluoro-1-(5-fluoro-1-((5-methoxypyrimidin-2-yl)methyl)-1H-benzo[d]imidazol-2-yl)piperidin-3-amine]
13 | 119 | CN(CC(F)(F)F)C(=O)Cn1c(N2CC[C@@H](F)[C@H](N)C2)nc2c(C#N)cc(F)cc21 [Example 447, 2-(2-((3R,4R)-3-amino-4-fluoropiperidin-1-yl)-4-cyano-6-fluoro-1H-benzo[d]imidazol-1-yl)-N-methyl-N-(2,2,2-trifluoroethyl)acetamide]
14 | 123 | COc1ccc2nc(N3CC[C@@H](F)[C@H](N)C3)n(CC(=O)N(C)C)c2c1 [Example 448, 2-(2-((3R,4R)-3-amino-4-fluoropiperidin-1-yl)-6-methoxy-1H-benzo[d]imidazol-1-yl)-N,N-dimethylacetamide]
15 | 1160 | COc1ccc2c(c1)nc(N1CC[C@@H](F)[C@H](N)C1)n2CC(=O)N(C)CC(F)(F)F [Example 449, 2-(2-((3R,4R)-3-amino-4-fluoropiperidin-1-yl)-5-methoxy-1H-benzo[d]imidazol-1-yl)-N-methyl-N-(2,2,2-trifluoroethyl)acetamide]
16 | > 3750 | COc1ccc2c(c1)nc(N1CC[C@@H](F)[C@H](N)C1)n2CC(=O)N(C)C [Example 450, 2-(2-((3R,4R)-3-amino-4-fluoropiperidin-1-yl)-5-methoxy-1H-benzo[d]imidazol-1-yl)-N,N-dimethylacetamide]
17 | 0.613 | CO[C@@H]1CCN(c2nc3ccc(F)cc3n2Cc2ccc(C#N)cn2)C[C@H]1N [Example 451]
18 | 1.17 | COc1cc(F)cc2c1nc(N1CC[C@@H](F)[C@H](N)C1)n2Cc1ccc(C#N)cn1 [Example 452, 6-((2-((3R,4R)-3-amino-4-fluoropiperidin-1-yl)-6-fluoro-4-methoxy-1H-benzo[d]imidazol-1-yl)methyl)nicotinonitrile]
19 | 1.51 | N#Cc1ccc(Cn2c(N3CC[C@@H](F)[C@H](N)C3)nc3ccc(C(F)(F)F)nc32)nc1 [Example 453, 6-((2-((3R,4R)-3-amino-4-fluoropiperidin-1-yl)-5-(trifluoromethyl)-3H-imidazo[4,5-b]pyridin-3-yl)methyl)nicotinonitrile]
20 | 1.52 | CO[C@@H]1CCN(c2nc3ccc(F)cc3n2Cc2ncc(Cl)cn2)C[C@H]1N [Example 454, (3R,4R)-1-(1-((5-chloropyrimidin-2-yl)methyl)-6-fluoro-1H-benzo[d]imidazol-2-yl)-4-methoxypiperidin-3-amine]
21 | 6.56 | N[C@@H]1CN(c2nc3ccc(Br)cc3n2CC(=O)N2CCC2)CC[C@H]1F [Example 455, 2-(2-((3R,4R)-3-amino-4-fluoropiperidin-1-yl)-6-bromo-1H-benzo[d]imidazol-1-yl)-1-(azetidin-1-yl)ethan-1-one]
22 | 13.3 | CN(CC(F)(F)F)C(=O)Cn1c(N2CC[C@@H](F)[C@H](N)C2)nc2ccc(F)cc21 [Example 457, 2-(2-((3R,4R)-3-amino-4-fluoropiperidin-1-yl)-6-fluoro-1H-benzo[d]imidazol-1-yl)-N-methyl-N-(2,2,2-trifluoroethyl)acetamide]
23 | 16.3 | N#Cc1ccc(Cn2c(N3CC[C@@H](F)[C@H](N)C3)nc3nc(C(F)(F)F)ccc32)nc1 [Example 458, 6-((2-((3R,4R)-3-amino-4-fluoropiperidin-1-yl)-5-(trifluoromethyl)-1H-imidazo[4,5-b]pyridin-1-yl)methyl)nicotinonitrile]
24 | 16.4 | N[C@@H]1CN(c2nc3ccc(C(F)(F)F)cc3n2CC(=O)N2CCOCC2)CC[C@H]1F [Example 459, 2-(2-((3R,4R)-3-amino-4-fluoropiperidin-1-yl)-6-(trifluoromethyl)-1H-benzo[d]imidazol-1-yl)-1-morpholinoethan-1-one]
25 | 24.2 | CN(CC(F)(F)F)C(=O)Cn1c(N2CC[C@@H](F)[C@H](N)C2)nc2cc(F)ccc21 [Example 460, 2-(2-((3R,4R)-3-amino-4-fluoropiperidin-1-yl)-5-fluoro-1H-benzo[d]imidazol-1-yl)-N-methyl-N-(2,2,2-trifluoroethyl)acetamide]
26 | 28.9 | CN(C)C(=O)Cn1c(N2CC[C@H](F)[C@H](N)C2)nc2ccc(Cl)cc21 [Example 461, 2-(2-((3R,4S)-3-amino-4-fluoropiperidin-1-yl)-6-chloro-1H-benzo[d]imidazol-1-yl)-N,N-dimethylacetamide]
27 | 29.4 | CN(CC(F)(F)F)C(=O)Cn1c(N2CC[C@H](F)[C@H](N)C2)nc2ccc(F)cc21 [Example 462, 2-(2-((3R,4S)-3-amino-4-fluoropiperidin-1-yl)-6-fluoro-1H-benzo[d]imidazol-1-yl)-N-methyl-N-(2,2,2-trifluoroethyl)acetamide]
28 | 33.9 | CO[C@H]1CCN(c2nc3ccc(F)cc3n2Cc2ccc(C#N)cn2)C[C@H]1N [Example 463, 6-((2-((3R,4S)-3-amino-4-methoxypiperidin-1-yl)-6-fluoro-1H-benzo[d]imidazol-1-yl)methyl)nicotinonitrile]
29 | 63.1 | N[C@@H]1CN(c2nc3ccc(C(F)(F)F)cc3n2CC(=O)N2CCOCC2)CC[C@@H]1F [Example 464, 2-(2-((3R,4S)-3-amino-4-fluoropiperidin-1-yl)-6-(trifluoromethyl)-1H-benzo[d]imidazol-1-yl)-1-morpholinoethan-1-one]
